Data published in US4018914A, “Parturition inducement” (Abbott Laboratories, priority 1975, dated 1977).
Where two headings read alike, the source gives them in different places.

System: pregnant rats
Assay type: in vivo, rat
Conditions: for Mean Number of Pups / Day of Parturition: pregnant rats; for Day of Parturition: number of animals at day
Experimental: The test animals received 20 μ in two equal portions, of L-pGlu-L-His-L-Trp-L-Ser-L-Tyr-D-Leu-L-Leu-L-Arg-L-Pro-NH-ethyl as a 0.04 g/l solution in 0.9% aqueous sodium chloride containing 0.1% bovine serum albumin. In all instances, the subcutaneous injections were given on day 18 of gestation.
In a repetition of the procedure of Example 1, the same test was carried out except that the animals were injected on day 19 of gestation.

[1] = same dose s.c. on day 19 of gestation

`CCNC(=O)[C@@H]1CCCN1C(=O)[C@H](CCCNC(=N)N)NC(=O)[C@H](CC(C)C)NC(=O)[C@@H](CC(C)C)NC(=O)[C@H](Cc1ccc(O)cc1)NC(=O)[C@H](CO)NC(=O)[C@H](Cc1c[nH]c2ccccc12)NC(=O)[C@H](Cc1c[nH]cn1)NC(=O)[C@@H]1CCC(=O)N1` [Test compound, L-pGlu-L-His-L-Trp-L-Ser-L-Tyr-D-Leu-L-Leu-L-Arg-L-Pro-NH-ethyl] was tested. Which “Mean Number of Pups” value (20 μ in two equal portions s.c. on day 18 of gestation) did it give?
Its value is 8.7.

What about the “Day of Parturition” value (20 μ in two equal portions s.c. on day 18 of gestation, normal pregnancy 21.5 days) of the same molecule?
Its value is 1 at 21; 2 at 20.

What about the “Mean Number of Pups” value [1] of the same molecule?
Its value is 9.3.

And the “Day of Parturition” value [1]?
Its value is 3 at 21.

And the “Condition of pups delivered” value (rat, in vivo)?
Its value is “healthy and indistinguishable from the control animals' pups”.

And the “Parturition result at other dose levels” value (rats, half and two times the dose level of example 1, compared with Table I)?
Its value is “essentially the same result as shown in Table I”.
